Legend:
Type in all cases: cell-based
[1] = system: loblolly pine somatic embryos; assay: Single somatic embryo initiation test (colony diameter); details: for Mean Colony Diameter: 0.1 mg/L added to medium 1253, measured at 4½ weeks
Experimental: (§1) For somatic initiation tests, embryos were selected from a liquid suspension culture supplemented with abscisic acid. (Table 1B, medium 16). Each replication consisted of ten adjacent wells on a multiwell plate, with a single stage 2, somatic embryo per well, providing two replications per multiwell plate. Four replications (for a total of 40 explants) were performed per treatment for each genotype. The plates were wrapped in Parafilme wrap to minimize evaporation and incubated at 22-24° C. in the dark for 4-6 weeks or until colony diameters were roughly ¾-1 cm. Typically, a single stage 2 embryo is approximately 0.1 mm in size. During this time period, the single embryo multiplies to form an embryogenic tissue mass of about 5-9 mm in diameter depending on the particular conifer, culture genotype, medium contents, and time. Changes in tissue diameters were used to assay the effects of vitamins or organic acid on early-stage embryo growth and multiplication. Colony diameters were measured using a dissecting scope ocular micrometer.
Osmolarity and pH of the culture media were monitored to ensure that these factors were similar throughout various conditions, and therefore, were not contributing to the observed differences. To analyze the results, the ANOVA statistical analysis was performed.
Single somatic embryo initiation tests were conducted to determine the effect of various vitamins on initiation. Embryos of loblolly pine were obtained and treated as described in Example 1. Isolated explants were incubated either in a control medium (Table 1A, medium 1253), or in the same medium supplemented with the K&M vitamin mixture (Table 1A, medium 1335). […] Evaluation of specific components of the K&M vitamin mixture lead to identification of the components responsible for the observed increase.
Single somatic embryo initiation tests were conducted to determine the effect of alpha-ketoglutaric acid on initiation in loblolly pine. Embryos of loblolly pine were obtained and treated as described in Example 1. The inventors note that a modification to the protocol detailed in Example 1 may be required due to the addition of an organic acid to the base medium. The addition of an acid, such as alpha-ketoglutaric acid, causes media pH to drop and therefore, all media supplemented with alpha-ketoglutaric acid were titrated to pH 5.7 before adding them to the cultures. Titration was performed with KOH, which increased potassium levels in the media by about 0.7 mM.
Single somatic embryo initiation tests were conducted according to the protocol described in Example 1. The inventors note that modification to the protocol detailed in Example 1 may be required due to the addition of an organic acid to the base medium. In culture medium containing 60.72 mg/L pyruvic acid (Table 1B, medium 1462) mean tissue diameter was 7.1 mm compared to a mean tissue diameter of 6.1 for embryos grown on the control medium 1253 indicating a positive correlation between embryo exposure to pyruvic acid and overall initiation. Iterations of this example in loblolly pine yielded similar percentage increases in initiation, e.g., a 7.2 mm mean tissue diameter for medium containing 0.52 mM pyruvic acid compared to 6.5 mm mean tissue diameter in the control medium. As shown herein, this effect is further enhanced by the combinations of multiple organic acids.

[2] = system: loblolly pine megagametophytes; assay: Zygotic initiation test with megagametophyte explants (extrusion and initiation); details: for effect on extrusion and initiation efficiency: 0.1 mg/L alone (media 1357, 1359), compared with medium 1391; for early extrusion and embryo expansion: supplement present in the medium
Experimental: (§2) Megagametophyte explants were isolated for zygotic initiation tests from loblolly pine summer cones when embryos were at approximately stage 2-4. Seeds were collected from four individual trees of diverse genotypes. Extracted seeds were soaked in running water for 10 minutes, agitated in 10% liquinox supplemented with 2 drops of Tween 20/L (polyoxyethylene-sorbitan monolaurate) for 10 minutes, and rinsed with water for 30 minutes. Seeds were sterilized in a laminar flow hood by agitating in 20% hydrogen peroxide for 10 minutes and rinsing with sterile deionized water. The seed coats, integuments and nucellus were removed to isolate the megagametophytes. Culturing was performed in 24-well culture plates with each well having an approximate volume of 3.0 ml. Two milliliters of media were added into each well.
Zygotic and somatic initiation tests were conducted to determine the effect of alpha-ketoglutaric acid in combination with vitamins B12 and E on initiation. Explants of loblolly pine were obtained and treated as described in Example 1 with the following modifications. Each replication consisted of ten adjacent wells on a multiwell plate, with one megagametophyte per well. Ten replications, for a total of 100 seeds, were performed per treatment for each cone collection.
According to the protocol of Example 1, four loblolly pine cone collections of approximately 500 seeds per collection with embryos at stages 2-4 were selected. Seeds were sterilized and dissected. […] Average initiation across the cone collections was roughly 30% for embryos grown on the control medium and roughly 36% for embryos grown on the test medium.

[3] = system: loblolly pine stage 2 somatic embryos; assay: Somatic embryo capture test in multiplication medium (colony diameter)
Experimental: as §1
Tests were conducted to determine the effect on somatic embryo capture of a medium supplemented with individual organic acids, such as alpha-ketoglutaric acid. Embryos of loblolly pine were obtained and treated as described in Example 1. Individual stage 2 embryos were selected from liquid maintenance medium and placed in multiplication medium (Table 1B, medium 1250).
Embryos of loblolly pine were obtained and treated as described in Example 1. Individual stage 2 embryos were selected from liquid maintenance medium and placed in multiplication medium (Table 1B, medium 1250). Stage 2 embryos were likewise placed in medium 1250 supplemented with 60.7 mg/L pyruvic acid (Table 1C, medium 1635). All cultures were incubated in the dark at 24-26° C. for 4-5 weeks.
A representative example for somatic capture uses embryos of loblolly pine obtained and treated as described in Example 1. Individual stage 2 embryos were selected from liquid maintenance medium and placed in multiplication medium (Table 1B, medium 1250). Compared to this control, the addition of 0.1 mg/L vitamin B12 alone to the multiplication medium (Table 1B, medium 1250) increased mean colony diameter by approximately 5%. Likewise, the addition of 100 mg/L alpha-ketoglutaric acid alone to the […] (Table 1B, medium 1250) increased mean colony diameter by approximately 10%.
Individual stage 2 embryos were selected from liquid maintenance medium and placed in multiplication control medium (Table 1B, medium 1250), as well as medium 1638, which is supplemented with 0.1 mg/L vitamin B12, 0.1 mg/L vitamin E, 100 mg/L alpha-ketoglutaric acid and 60.7 mg/L pyruvic acid (Table 1C, medium 1638). […]

[4] = system: Douglas Fir zygotic embryos; assay: Zygotic embryo initiation test
Experimental: as §2
Embryos of Douglas Fir were obtained, and treated as described in Example 1.
A further example is provided for Douglas Fir. Douglas Fir zygotic embryos were tested for improved initiation when exposed to cultures containing pyruvic acid according to the protocol described in Example 1. Control medium 121 (Table 1C) was supplemented with 60.7 mg/L pyruvic acid to create the test medium (Table 1C, medium 1625). After incubation for eight weeks in the dark, initiation was scored. For tissue exposed to pyruvic acid, mean initiation rates were approximately 35% compared to 32% for the untreated embryos.

[5] = system: Norway Spruce somatic embryos; assay: Single somatic embryo initiation test (tissue diameter); details: 60.7 mg/L (medium 1664); control medium 1662 gave 2.8 mm
Experimental: as §1
Tissue isolated and prepared according to Example 1 was incubated in a medium containing 0.1 mg/L of both vitamin B12 and E for 4-5 weeks in the dark at 24-26° C. (Table 1 D, medium 1665). Tissue cultured in medium 1665 achieved an average diameter of 3.1 mm compared to tissue cultured in the control medium, which achieved an average diameter of 2.8 mm. […]

## vitamin B12 [reference compound]
[1]
  Mean Colony Diameter: 4.88 mm
[2]
  effect on extrusion and initiation efficiency: some, but a lesser effect
[3]; 0.1 mg/L vitamin B12 alone
  increase in mean colony diameter vs medium 1250: approximately 5%

## Nc1ccc(C(=O)O)cc1 [p-aminobenzoic acid]
[1]; 0.2 ppm (medium 1434) vs control medium 1253
  increase in mean colony diameter as compared to the control: 32%
[4]; 20 mg/L (medium 1627), base medium 121 gave 32%
  initiation: 39%

## vitamin E
[1]
  Mean Colony Diameter: 4.65 mm
[2]
  effect on extrusion and initiation efficiency: some, but a lesser effect
  early extrusion and embryo expansion: more robust

## CC(=O)C(=O)O [pyruvic acid]
[5]
  mean diameters: 3.6 mm
[1]; 0.52 mM, iteration of the example, control medium gave 6.5 mm
  mean tissue diameter: 7.2 mm
[1]; 60.72 mg/L (medium 1462), control medium 1253 gave 6.1
  mean tissue diameter: 7.1 mm
[4]; 60.7 mg/L (medium 1625), eight weeks in the dark, untreated 32%
  mean initiation rates: approximately 35%
[3]; 60.7 mg/L in medium 1250 (medium 1635), dark, 24-26° C., 4-5 weeks, control 3.3 mm
  average diameter: roughly 3.7 mm

## O=C(O)CCC(=O)C(=O)O [alpha-ketoglutaric acid]
[1]; 100 ppm (medium 1342) vs control medium 1253, titrated to pH 5.7
  levels of initiation higher than control as measured by mean colony diameter: 20%
[4]; 100 mg/L (medium 1624)
  levels of initiation vs control medium 121: higher levels of initiation
[2]
  early extrusion and embryo expansion: more robust
[3]; 100 mg/L alpha-ketoglutaric acid alone
  increase in mean colony diameter vs medium 1250: approximately 10%
[3]; only additive to control medium 1250, between 100 and 200 mg/L
  increase in mean colony diameter: 5-6%
